The values below come from US20260083751A1, “ALLOSTERIC MODULATORS OF ANDROGEN RECEPTOR COACTIVATOR RECRUITMENT FOR CRPC THERAPY” (University of Pittsburgh – Of the Commonwealth System of …, priority 2022, published 2026).

This experiment has as its target T1, AR-LBD (Homo sapiens, UniProt P10275).
T1 construct: The pET28a-AR-LBD (622-919) construct; made in house
T1 sequence (P10275 622-919): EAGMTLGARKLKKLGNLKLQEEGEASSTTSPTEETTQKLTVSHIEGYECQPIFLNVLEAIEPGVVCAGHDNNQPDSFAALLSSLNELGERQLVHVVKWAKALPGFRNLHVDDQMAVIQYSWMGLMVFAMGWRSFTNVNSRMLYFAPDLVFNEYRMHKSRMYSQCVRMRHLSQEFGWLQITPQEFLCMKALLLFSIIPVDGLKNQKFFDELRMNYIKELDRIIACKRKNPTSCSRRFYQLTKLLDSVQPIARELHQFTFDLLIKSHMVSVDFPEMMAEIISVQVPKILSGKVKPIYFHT
As to the kind of experiment: H^3-DHT radioligand binding assay. The protocol:
H^3-DHT Radioligand Binding Assay: The His6-AR-LBD H^3-DHT competition binding assay has been described previously (Fancher et al., Assay Drug Dev Technol. 2016, 14:453-477; Fancher et al., Assay Drug Dev Technol. 2019, 17:364-386). Briefly, 96-well Cu^2+-coated plates (ThermoFisher) were incubated overnight at 4° C. with 5 µg per well His6-AR-LBD in 100 μL of PBS. Unbound His6-AR-LBD was aspirated, the plate was washed 3× with 100 μL of 0.05% Tween 20 in PBS and then blocked with 100 μL of 1 mg/mL BSA in PBS for 1 h. After three more washes with 100 μL of PBS and 0.05% Tween 20, 40 μL of PBS was added to wells followed by […] each of diluted compounds and 100 nM H^3-DHT transferred into the wells using a Matrix pipettor. Compounds were tested between 0.098 to 50 μM in the presence of 10 nM H^3-DHT. After 1 h, compounds and H^3-DHT were aspirated and washed 3× with 0.05% Tween 20 in PBS; 100 μL of Microscint™-20 micro-scintillation cocktail buffer (Perkin Elmer, Waltham, MA) was added to each well, plates were sealed with adhesive plastic covers; and the counts per minute (CPMs) were captured in a TopCount NXT microtiter plate reader (Perkin Elmer, Waltham, MA).

The mark [1] stands for this setting: 10 nM H^3-DHT, read-out: Inhibition H^3-DHT ligand binding to AR-LBD IC50.
Setting [2] is: read-out: IC50 in H^3-DHT binding assay (potency range in words).

Structures are written as SMILES. pIC50: −log10 of the molar value. Values joined by “and” are separate entries in the source; they are usually repeats but may differ in a detail not shown here. Equal entries are not always repeated. Where two headings read alike, the source gives them in different places.

The pIC50 is −log10 of the IC50, conventionally taken in molar units. As for `Cc1ccccc1-c1cc(O)c2c(c1)CN(c1nc(C(N)=O)cs1)CCO2` [Compound S1-1], the pIC50 reads like this: (10 nM H^3-DHT, listed as 1, read-out: Inhibition H^3-DHT ligand binding to AR-LBD IC50) 4.57; under setting [1], ~4.36 and ~4.57. As for `Cc1nc(N)cc(N2CCOc3c(O)cc(-c4ccccc4C)cc3C2)n1` [Compound S1-2], the negative-log IC50 (pIC50) under setting [1] was under 4.00. Turning to `Cc1ccccc1-c1cc(O)c2c(c1)CN(c1nccs1)CCO2` [Compound S1-3], the pIC50 under setting [1] is under 4.00. The same measure, in the same setting: next, `COc1cc(-c2ccc(C)s2)cc2c1OCCN(c1nc(C(N)=O)cs1)C2` [Compound S1-5]: under 4.00; `Cc1nsc(NC(=O)N2CCC(Sc3ccccc3C)CC2)n1` [Compound S2-6]: under 4.00. On the same count and under the same terms, with `Cc1c(-c2ccccc2F)[nH]c2ccc(CNC(=O)CCc3cn[nH]c3)cc12` [Compound S3-11] the figure was under 4.00; with `Cc1c(-c2ccccc2F)[nH]c2ccc(CNC(=O)CCc3cnccn3)cc12` [Compound S3-12], under 4.00. For the compound `CC(=O)NCCC(=O)NCc1ccc2[nH]c(-c3ccccc3F)c(C)c2c1` [Compound S3-13], the negative logarithm of the IC50 (pIC50) under setting [1] was under 4.00. On to `Cc1c(-c2ccccc2F)[nH]c2ccc(CNC(=O)c3ccc(CO)o3)cc12` [Compound S3-14], for which the pIC50 runs as follows: under setting [1], 4.20; under setting [2], 4.00 to 5.00. For the compound `Cc1c(-c2ccc(F)cc2)[nH]c2ccc(CNC(=O)c3ccc(CO)o3)cc12` [Compound S3-15], the pIC50 under setting [1] is under 4.00. As for `Cc1cccc2c(-c3ccc(O)c(F)c3)c[nH]c12` [Compound S3-17], the pIC50 is 4.25 under setting [1] and 4.00 to 5.00 under setting [2].

For `CNC(=O)c1ccc(-c2c[nH]c3c(C)cccc23)cc1` [Compound S3-21], the negative-log IC50 (pIC50) under setting [1] is under 4.00.
